Measured values: US20050113405A1, “Methods of treating rheumatoid arthritis using NF-kB inhibitors” (Wyeth, priority 2003, published 2005)

Columns and labels:
[1] = system: Lewis rats with adjuvant-induced arthritis; assay: Adjuvant-induced arthritis in Lewis rats, daily joint scores (hindpaw erythema and swelling); assay type: in vivo, rat
[2] = system: Lewis rats with adjuvant-induced arthritis; assay: Adjuvant-induced arthritis in Lewis rats, histological scoring of tarsal joints (Mankin and synovitis scores); assay type: in vivo, rat; conditions: for Tidemark Integrity (0-1) / Cartilage Cells (0-3) / Cartilage Structure (0-6) / Fibroplasia (0-3) / Inflammatory Cells (0-3) / Pannus (0-2) / Saffranin-O/Fast Green Staining (0-4) / Synovial Structure (0-3) / Total Mankin Score (0-14) / Total Synovitis Score (0-10): tarsal joints; for Cartilage Cells (0-3) / Cartilage Structure (0-6) / Fibroplasia (0-3) / Inflammatory Cells (0-3) / Pannus (0-2) / Saffranin-O/Fast Green Staining (0-4) / Synovial Structure (0-3) / Total Mankin Score (0-14) / Total Synovitis Score (0-10): mean ± SD
Protocol: Statistical analysis was performed using Abacus Concepts Super ANOVA. (Abacus Concepts, Inc., Berkeley, Calif.). All of the parameters of interest were subjected to Analysis of Variance with Duncan's new multiple range post hoc testing between groups. Data are expressed throughout as mean±standard deviation (SD), and differences were deemed significant if p<0.05.
At the end of the study the rats were euthanized with CO2, hindlimbs were removed at necropsy and fixed in 10% buffered formalin, and the tarsal joints were decalcified and embedded in paraffin. Histologic sections will be stained with Hematoxylin and Eosin or Saffranin O—Fast Green stain.
Slides will be coded so that the examiner will be blinded to the treatment groups. […] Articular cartilage and bone will be evaluated using Mankin's histological grading system (method described by Mankin H J, Dorfman, H:Lippieo L. L. Zarins. 1971. Biochemical and metabolic abnormalities in articular cartilage from osteoarthritic human hip. See J. Bone Joint Surg (AM) 53A:152-153) (Table 6).

BALB/c mice = assay: Collagen induced arthritis model (anti-type II collagen mAbs plus LPS), hind paw volume; assay type: in vivo, mouse; conditions: 2.5 mg/kg orally once daily; over the course of the experiment
Protocol: Compounds are evaluated in BALB/c mice, 6-8 weeks of age, in which arthritis is induced by monoclonal antibodies raised against type II collagen, plus lipopolysaccharide (LPS). The animals were administered intravenously with a combination of 4 different mAbs totaling 4 mg/mouse on day 0, and followed by intravenous 25 μg of LPS 72 hours later (day 3). From day 3, one hour after LPS application, tested compounds are give orally once daily for 15 days. For each animal, increase in volume of both hind paws is measured using a plethysmometer with water cell (12 mm diameter) on days 0, 5, 7, 10, 14 and 17. Percent inhibition of increase in volume is calculated. Reduction of edema in the hind paws by 30% or more is considered significant.

[3] = 0.1 mg/kg orally for 2 weeks from day 8 after CFA
[4] = 0.3 mg/kg orally for 2 weeks from day 8 after CFA
[5] = 1 mg/kg orally for 2 weeks from day 8 after CFA

Structure (SMILES): C[C@@H]1c2cc(F)ccc2-c2ccccc2N1S(=O)(=O)c1ccc(O)cc1 (stereo in doubt) [Example 3, 4-[(8-Fluoro-6-methylphenanthridin-5(6H)-yl)sulfonyl]phenol]
- joint scores (paw swelling and redness, maximal score per day 12) ([1]; Day 8, 0.1 mg/kg orally each day from Day 8 after adjuvant): 11.3
- joint scores (paw swelling and redness, maximal score per day 12) ([1]; Day 8, 0.3 mg/kg orally each day from Day 8 after adjuvant): 11.5
- joint scores (paw swelling and redness, maximal score per day 12) ([1]; Day 8, 1 mg/kg orally each day from Day 8 after adjuvant): 11.3
- joint scores (paw swelling and redness, maximal score per day 12) ([1]; Day 9, 0.1 mg/kg orally each day from Day 8 after adjuvant): 10.7
- joint scores (paw swelling and redness, maximal score per day 12) ([1]; Day 9, 0.3 mg/kg orally each day from Day 8 after adjuvant): 9.8
- joint scores (paw swelling and redness, maximal score per day 12) ([1]; Day 9, 1 mg/kg orally each day from Day 8 after adjuvant): 8.8
- joint scores (paw swelling and redness, maximal score per day 12) ([1]; Day 10, 0.1 mg/kg orally each day from Day 8 after adjuvant): 9.3
- joint scores (paw swelling and redness, maximal score per day 12) ([1]; Day 10, 0.3 mg/kg orally each day from Day 8 after adjuvant): 7.3
- joint scores (paw swelling and redness, maximal score per day 12) ([1]; Day 10, 1 mg/kg orally each day from Day 8 after adjuvant): 7
- joint scores (paw swelling and redness, maximal score per day 12) ([1]; Day 11, 0.1 mg/kg orally each day from Day 8 after adjuvant): 9.7
- joint scores (paw swelling and redness, maximal score per day 12) ([1]; Day 11, 0.3 mg/kg orally each day from Day 8 after adjuvant): 7
- joint scores (paw swelling and redness, maximal score per day 12) ([1]; Day 11, 1 mg/kg orally each day from Day 8 after adjuvant): 6
- joint scores (paw swelling and redness, maximal score per day 12) ([1]; Day 12, 0.1 mg/kg orally each day from Day 8 after adjuvant): 10
- joint scores (paw swelling and redness, maximal score per day 12) ([1]; Day 12, 0.3 mg/kg orally each day from Day 8 after adjuvant): 6.7
- joint scores (paw swelling and redness, maximal score per day 12) ([1]; Day 12, 1 mg/kg orally each day from Day 8 after adjuvant): 5
- joint scores (paw swelling and redness, maximal score per day 12) ([1]; Day 13, 0.1 mg/kg orally each day from Day 8 after adjuvant): 4.2
- joint scores (paw swelling and redness, maximal score per day 12) ([1]; Day 13, 0.3 mg/kg orally each day from Day 8 after adjuvant): 3.7
- joint scores (paw swelling and redness, maximal score per day 12) ([1]; Day 13, 1 mg/kg orally each day from Day 8 after adjuvant): 1.7
- joint scores (paw swelling and redness, maximal score per day 12) ([1]; Day 14, 0.1 mg/kg orally each day from Day 8 after adjuvant): 3.5
- joint scores (paw swelling and redness, maximal score per day 12) ([1]; Day 14, 0.3 mg/kg orally each day from Day 8 after adjuvant): 3
- joint scores (paw swelling and redness, maximal score per day 12) ([1]; Day 14, 1 mg/kg orally each day from Day 8 after adjuvant): 1.3
- joint scores (paw swelling and redness, maximal score per day 12) ([1]; Day 15, 0.1 mg/kg orally each day from Day 8 after adjuvant): 3.5
- joint scores (paw swelling and redness, maximal score per day 12) ([1]; Day 15, 0.3 mg/kg orally each day from Day 8 after adjuvant): 3.7
- joint scores (paw swelling and redness, maximal score per day 12) ([1]; Day 15, 1 mg/kg orally each day from Day 8 after adjuvant): 1.3
- joint scores (paw swelling and redness, maximal score per day 12) ([1]; Day 16, 0.1 mg/kg orally each day from Day 8 after adjuvant): 3.3
- joint scores (paw swelling and redness, maximal score per day 12) ([1]; Day 16, 0.3 mg/kg orally each day from Day 8 after adjuvant): 2.3
- joint scores (paw swelling and redness, maximal score per day 12) ([1]; Day 16, 1 mg/kg orally each day from Day 8 after adjuvant): 1.2
- joint scores (paw swelling and redness, maximal score per day 12) ([1]; Day 17, 0.1 mg/kg orally each day from Day 8 after adjuvant): 3.3
- joint scores (paw swelling and redness, maximal score per day 12) ([1]; Day 17, 0.3 mg/kg orally each day from Day 8 after adjuvant): 2.3
- joint scores (paw swelling and redness, maximal score per day 12) ([1]; Day 17, 1 mg/kg orally each day from Day 8 after adjuvant): 1.2
- joint scores (paw swelling and redness, maximal score per day 12) ([1]; Day 18, 0.1 mg/kg orally each day from Day 8 after adjuvant): 3.3
- joint scores (paw swelling and redness, maximal score per day 12) ([1]; Day 18, 0.3 mg/kg orally each day from Day 8 after adjuvant): 2.3
- joint scores (paw swelling and redness, maximal score per day 12) ([1]; Day 18, 1 mg/kg orally each day from Day 8 after adjuvant): 1.2
- joint scores (paw swelling and redness, maximal score per day 12) ([1]; Day 19, 0.1 mg/kg orally each day from Day 8 after adjuvant): 3
- joint scores (paw swelling and redness, maximal score per day 12) ([1]; Day 19, 0.3 mg/kg orally each day from Day 8 after adjuvant): 2
- joint scores (paw swelling and redness, maximal score per day 12) ([1]; Day 19, 1 mg/kg orally each day from Day 8 after adjuvant): 1.2
- joint scores (paw swelling and redness, maximal score per day 12) ([1]; Day 20, 0.1 mg/kg orally each day from Day 8 after adjuvant): 2.8
- joint scores (paw swelling and redness, maximal score per day 12) ([1]; Day 20, 0.3 mg/kg orally each day from Day 8 after adjuvant): 2
- joint scores (paw swelling and redness, maximal score per day 12) ([1]; Day 20, 1 mg/kg orally each day from Day 8 after adjuvant): 1.2
- joint scores (paw swelling and redness, maximal score per day 12) ([1]; Day 21, 0.1 mg/kg orally each day from Day 8 after adjuvant): 2.5
- joint scores (paw swelling and redness, maximal score per day 12) ([1]; Day 21, 0.3 mg/kg orally each day from Day 8 after adjuvant): 1.7
- joint scores (paw swelling and redness, maximal score per day 12) ([1]; Day 21, 1 mg/kg orally each day from Day 8 after adjuvant): 1.2
- joint scores (paw swelling and redness, maximal score per day 12) ([1]; Day 22, 0.1 mg/kg orally each day from Day 8 after adjuvant): 2.5
- joint scores (paw swelling and redness, maximal score per day 12) ([1]; Day 22, 0.3 mg/kg orally each day from Day 8 after adjuvant): 1.7
- joint scores (paw swelling and redness, maximal score per day 12) ([1]; Day 22, 1 mg/kg orally each day from Day 8 after adjuvant): 1.2
- joint scores (paw swelling and redness, maximal score per day 12) ([1]; Day 23, 0.1 mg/kg orally each day from Day 8 after adjuvant): 1.2
- joint scores (paw swelling and redness, maximal score per day 12) ([1]; Day 23, 0.3 mg/kg orally each day from Day 8 after adjuvant): 1
- joint scores (paw swelling and redness, maximal score per day 12) ([1]; Day 23, 1 mg/kg orally each day from Day 8 after adjuvant): 1
- joint scores (paw swelling and redness, maximal score per day 12) ([1]; Day 24, 0.1 mg/kg orally each day from Day 8 after adjuvant): 1.3
- joint scores (paw swelling and redness, maximal score per day 12) ([1]; Day 24, 0.3 mg/kg orally each day from Day 8 after adjuvant): 1.3
- joint scores (paw swelling and redness, maximal score per day 12) ([1]; Day 24, 1 mg/kg orally each day from Day 8 after adjuvant): 0.8
- Tidemark Integrity (0-1) [2, 3]: 0
- Cartilage Cells (0-3) [2, 3]: 1.92 ± 0.21
- Cartilage Structure (0-6) [2, 3]: 2.33 ± 0.68
- Fibroplasia (0-3) [2, 3]: 1.75 ± 0.42
- Inflammatory Cells (0-3) [2, 3]: 1.83 ± 0.52
- Pannus (0-2) [2, 3]: 1.50 ± 0.84
- Saffranin-O/Fast Green Staining (0-4) [2, 3]: 2.42 ± 0.67
- Synovial Structure (0-3) [2, 3]: 2.33 ± 0.75
- Total Mankin Score (0-14) [2, 3]: 6.83 ± 1.25
- Total Synovitis Score (0-10) [2, 3]: 7.42 ± 2.25
- Tidemark Integrity (0-1) [2, 4]: 0
- Cartilage Cells (0-3) [2, 4]: 1.50 ± 0.32
- Cartilage Structure (0-6) [2, 4]: 1.75 ± 0.42
- Fibroplasia (0-3) [2, 4]: 1.67 ± 0.26*t
- Inflammatory Cells (0-3) [2, 4]: 1.25 ± 0.27
- Pannus (0-2) [2, 4]: 0.50 ± 0.84
- Saffranin-O/Fast Green Staining (0-4) [2, 4]: 2.17 ± 0.26
- Synovial Structure (0-3) [2, 4]: 1.58 ± 0.38
- Total Mankin Score (0-14) [2, 4]: 5.42 ± 0.74*t
- Total Synovitis Score (0-10) [2, 4]: 5.00 ± 1.30*#t
- Tidemark Integrity (0-1) [2, 5]: 0
- Cartilage Cells (0-3) [2, 5]: 1.17 ± 0.26*t
- Cartilage Structure (0-6) [2, 5]: 1.25 ± 0.27
- Fibroplasia (0-3) [2, 5]: 1.33 ± 0.41*t
- Inflammatory Cells (0-3) [2, 5]: 1.17 ± 0.26
- Pannus (0-2) [2, 5]: 0.25 ± 0.42
- Saffranin-O/Fast Green Staining (0-4) [2, 5]: 2.17 ± 0.26
- Synovial Structure (0-3) [2, 5]: 1.42 ± 0.38
- Total Mankin Score (0-14) [2, 5]: 4.58 ± 0.74*t
- Total Synovitis Score (0-10) [2, 5]: 4.17 ± 1.21*#t
- overall synovitis and cartilage scores ([2]; all concentrations tested (down to 0.1 mg/kg), oral): significantly improved
- inhibition of paw edema (increase in hind paw volume) (BALB/c mice): > 30%
- melting point: 188 °C
